Like-named read-outs stand apart in the source and are kept apart here.
Experiments:
Protein binding = assay type: in vitro ADME
[1] = Metabolism in standard in vitro assays; assay type: in vitro ADME
[2] = Daily steady-state exposure (AUC24,ss) in a Phase 2b clinical study; assay type: in vivo; settings: human, plasma, oral, 1500 mg, 1500 mg BID treatment arm
Procedure: In addition, predicted daily steady-state exposures (AUC24,ss) for doses of 500 mg BID, 1500 mg QD, and 1000 mg BID in T2DM subjects with CKD stage 3B or 4 in a Phase 1b study were estimated using parameters from the population PK model; the mean AUC24,ss values and standard deviations are shown in FIG. 10. For reference, the mean AUC24,ss and standard deviation from a Phase 2b clinical study is also included in FIG. 10; the mean AUC24,ss in the 1500 mg BID treatment arm in that study was 36.5 μg·hr/mL (the AUC24,ss range was 10.1 to 169.3 μg·hr/mL). At each of the three dose levels, significant overlap in exposure between T2DM subjects with CKD3B and T2DM subjects with CKD4 was predicted as evidenced by the overlap of standard deviation bars between CKD3B and CKD4 subjects at each dose level.

subjects with T2DMs = experiment: Earlier studies in subjects with T2DM for up to 24 weeks (monotherapy, add on to metformin and sitagliptin); assay type: in vivo, human
subjects with T2DM = experiment: 24-week Phase IIb dose-ranging placebo-controlled study in subjects with T2DM; assay type: in vivo, human; settings: for Mean HbA1c Change from Baseline: Week 24, T2D and Stage 2 and 3a CKD
Procedure: A 24-Week, Phase IIb, Dose-Ranging, Randomized, Double-blind, Placebo-controlled, Parallel-group Safety and Efficacy Study in Subjects with T2DM
The five parallel groups included 4 groups of imeglimin doses (500, 1000, 1500, or 2000 mg twice daily) and 1 placebo group. The primary endpoint was to assess the dose-response in T2D subjects, using change in HbA1c from baseline to week 24 as the primary evaluation criterion. Subjects could be either treatment naïve or treated with any oral antidiabetic monotherapy and were to have an eGFR of ≥50 mL/min/1.73 m^2. A total of 382 subjects were randomized 1:1:1:1:1 to one of the 5 study arms, with 315 subjects completing the study.

SMILES: C[C@H]1N=C(N(C)C)N=C(N)N1 [imeglimin, (6R)—N^2, N^2,6-trimethyl-3,6-dihydro-1,3,5-triazine-2,4-diamine]
- protein binding (Protein binding): < 8 % bound
- metabolism [1]: no appreciable metabolism
- AUC ([2]; read-out: AUC24,ss range): 10100 to 169000 ng·h/mL
- AUC ([2]; read-out: mean AUC24,ss): 36500 ng·h/mL
- tolerability / safety profile (subjects with T2DMs): well-tolerated with a safety profile comparable to that of placebo
- Mean HbA1c Change from Baseline (subjects with T2DM; 500 mg BID (n = 44)): 0.007%
- Mean HbA1c Change from Baseline (subjects with T2DM; 1000 mg BID (n = 43)): −0.072%
- Mean HbA1c Change from Baseline (subjects with T2DM; 1500 mg BID (n = 41)): −0.502%
- Mean HbA1c Change from Baseline (subjects with T2DM; 2000 mg BID (n = 42)): −0.193%
- HbA1c lowering compared to placebo (subjects with T2DM; post-hoc analysis, stage 2 and 3a CKD (eGFR <90 mL/min/1.73 m^2, n=211)): improvement in HbA1c lowering as compared to placebo

Reference: patent publication US12036226B2, “Methods of treating subjects having diabetes with chronic kidney disease” (Poxel SA, priority 2018, dated 2024)
